Molecules are shown by their SMILES.

For this experiment, the target named is LRRK2 G2019S (Homo sapiens, UniProt Q5S007, G2019S). The experiment is described as follows: LRRK2 G2019S Km ATP LanthaScreen assay. To be noted: read-out: LRRK2 pIC50 (converted). In kind it is biochemical.
Sequence of LRRK2 G2019S (Q5S007 whole entry G2019S): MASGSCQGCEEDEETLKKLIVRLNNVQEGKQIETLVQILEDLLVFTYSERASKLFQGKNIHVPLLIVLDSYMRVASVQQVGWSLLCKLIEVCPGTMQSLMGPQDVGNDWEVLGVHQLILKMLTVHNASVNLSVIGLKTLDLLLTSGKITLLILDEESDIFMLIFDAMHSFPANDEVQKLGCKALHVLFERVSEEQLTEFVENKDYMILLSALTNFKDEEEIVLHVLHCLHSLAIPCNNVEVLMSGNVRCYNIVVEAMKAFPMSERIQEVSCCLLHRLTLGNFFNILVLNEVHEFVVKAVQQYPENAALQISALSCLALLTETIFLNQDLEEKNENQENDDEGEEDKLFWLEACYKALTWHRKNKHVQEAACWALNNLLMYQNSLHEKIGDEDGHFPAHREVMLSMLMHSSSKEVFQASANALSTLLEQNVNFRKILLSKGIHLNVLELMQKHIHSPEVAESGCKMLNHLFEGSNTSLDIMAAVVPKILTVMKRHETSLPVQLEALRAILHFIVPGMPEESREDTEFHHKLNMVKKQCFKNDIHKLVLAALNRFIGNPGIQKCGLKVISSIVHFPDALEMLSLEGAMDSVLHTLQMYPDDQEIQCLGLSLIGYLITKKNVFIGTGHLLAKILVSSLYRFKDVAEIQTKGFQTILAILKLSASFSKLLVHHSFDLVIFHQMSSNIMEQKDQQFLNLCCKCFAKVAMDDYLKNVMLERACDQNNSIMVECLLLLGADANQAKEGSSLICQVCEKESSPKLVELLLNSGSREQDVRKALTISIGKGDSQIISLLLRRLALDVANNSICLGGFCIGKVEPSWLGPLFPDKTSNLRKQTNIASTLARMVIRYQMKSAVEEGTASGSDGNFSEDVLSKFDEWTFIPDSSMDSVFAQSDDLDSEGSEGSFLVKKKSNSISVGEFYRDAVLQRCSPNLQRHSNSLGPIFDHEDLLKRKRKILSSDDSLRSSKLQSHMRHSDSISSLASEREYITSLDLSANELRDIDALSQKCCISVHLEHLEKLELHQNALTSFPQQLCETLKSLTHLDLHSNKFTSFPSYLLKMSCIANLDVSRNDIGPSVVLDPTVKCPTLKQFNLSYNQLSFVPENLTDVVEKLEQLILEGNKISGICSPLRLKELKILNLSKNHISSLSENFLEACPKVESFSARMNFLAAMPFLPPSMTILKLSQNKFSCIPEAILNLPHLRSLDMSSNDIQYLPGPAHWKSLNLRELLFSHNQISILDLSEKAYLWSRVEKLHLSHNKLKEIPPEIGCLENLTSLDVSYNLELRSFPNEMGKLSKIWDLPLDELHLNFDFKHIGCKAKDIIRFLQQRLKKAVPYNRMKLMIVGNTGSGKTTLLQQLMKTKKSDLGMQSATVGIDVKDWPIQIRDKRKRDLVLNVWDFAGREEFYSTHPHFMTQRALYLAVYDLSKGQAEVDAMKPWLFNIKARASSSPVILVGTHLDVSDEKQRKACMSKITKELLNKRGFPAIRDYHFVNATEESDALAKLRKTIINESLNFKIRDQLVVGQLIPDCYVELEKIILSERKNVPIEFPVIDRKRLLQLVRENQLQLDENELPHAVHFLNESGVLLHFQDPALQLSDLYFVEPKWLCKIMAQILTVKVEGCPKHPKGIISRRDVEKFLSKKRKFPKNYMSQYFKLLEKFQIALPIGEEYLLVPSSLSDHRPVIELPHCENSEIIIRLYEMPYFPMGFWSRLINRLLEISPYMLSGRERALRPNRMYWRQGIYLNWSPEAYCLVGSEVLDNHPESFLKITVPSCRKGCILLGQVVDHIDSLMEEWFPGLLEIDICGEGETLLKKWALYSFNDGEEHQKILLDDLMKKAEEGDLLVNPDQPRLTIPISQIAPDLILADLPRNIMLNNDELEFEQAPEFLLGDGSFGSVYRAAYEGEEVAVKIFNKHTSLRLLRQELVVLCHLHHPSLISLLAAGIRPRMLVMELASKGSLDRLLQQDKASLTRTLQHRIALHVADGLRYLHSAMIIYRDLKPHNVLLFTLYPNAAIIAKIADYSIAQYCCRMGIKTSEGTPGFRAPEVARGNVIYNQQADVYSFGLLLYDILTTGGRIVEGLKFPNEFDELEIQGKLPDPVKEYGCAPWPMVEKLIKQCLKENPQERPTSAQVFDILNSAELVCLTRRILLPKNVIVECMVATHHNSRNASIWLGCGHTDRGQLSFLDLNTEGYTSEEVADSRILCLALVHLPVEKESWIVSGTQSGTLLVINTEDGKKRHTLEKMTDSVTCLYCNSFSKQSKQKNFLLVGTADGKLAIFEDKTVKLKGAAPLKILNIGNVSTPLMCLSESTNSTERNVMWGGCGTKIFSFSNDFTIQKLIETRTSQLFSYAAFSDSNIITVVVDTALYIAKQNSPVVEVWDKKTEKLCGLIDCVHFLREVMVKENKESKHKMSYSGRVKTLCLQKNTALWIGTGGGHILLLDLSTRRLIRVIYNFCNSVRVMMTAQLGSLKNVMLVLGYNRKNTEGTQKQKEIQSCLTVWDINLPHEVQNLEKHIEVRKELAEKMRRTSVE
With `CC1(C)CCC(C(=O)Nc2cc3cc(C4CCC(N5CCC(F)C5)CC4)c(Cl)cc3cn2)CO1` (single isomer, unassigned) [Ex-5.24, N-(7-chloro-6-(4-(3-fluoropyrrolidin-1-yl)cyclohexyl)isoquinolin-3-yl)-6,6-dimethyltetrahydro-2H-pyran-3-carboxamide], the IC50 is 4270 nM. Regarding `Cn1cc(C2CC2C(=O)Nc2cc3cc(C4CC(N5CC(F)C5)C4)c(Cl)cc3cn2)cn1` (single isomer, unassigned) [Ex-5.25, N-(7-chloro-6-(3-(3-fluoroazetidin-1-yl)cyclobutyl)isoquinolin-3-yl)-2-(1-methyl-1H-pyrazol-4-yl)cyclopropane-1-carboxamide], the IC50 is 0.575 nM. As for `Cn1cc(C2CC2C(=O)Nc2cc3cc(C4CC(N5CC(F)C5)C4)c(Cl)cc3cn2)cn1` (single isomer, unassigned) [Ex-5.26, N-(7-chloro-6-(3-(3-fluoroazetidin-1-yl)cyclobutyl)isoquinolin-3-yl)-2-(1-methyl-1H-pyrazol-4-yl)cyclopropane-1-carboxamide], the IC50 is 2.34 nM. `CC1(N2CCC(c3cc4cc(NC(=O)C5CC56CCOC6)ncc4cc3Cl)CC2)COCC1F` (single isomer, unassigned) [Ex-6.1, (R or S)-N-(7-chloro-6-(1-((3R,4R or 3S,4S)-4-fluoro-3-methyltetrahydrofuran-3-yl)piperidin-4-yl)isoquinolin-3-yl)-5-oxaspiro [2.4] heptane-1-carboxamide]: the IC50 was 42.7 nM. In the case of `CC1(N2CCC(c3cc4cc(NC(=O)C5CC56CCOC6)ncc4cc3Cl)CC2)COCC1F` (single isomer, unassigned) [Ex-6.2, (R or S)-N-(7-chloro-6-(1-((3R,4R or 3S,4S)-4-fluoro-3-methyltetrahydrofuran-3-yl)piperidin-4-yl)isoquinolin-3-yl)-5-oxaspiro [2.4] heptane-1-carboxamide], the IC50 was 112 nM.

In the case of `CC1(N2CCC(c3cc4cc(NC(=O)C5CC56CCOC6)ncc4cc3Cl)CC2)COCC1F` (single isomer, unassigned) [Ex-6.3, (R or S)-N-(7-chloro-6-(1-((3R,4R or 3S,4S)-4-fluoro-3-methyltetrahydrofuran-3-yl)piperidin-4-yl)isoquinolin-3-yl)-5-oxaspiro [2.4] heptane-1-carboxamide], the IC50 is 0.0813 nM.

For `CC1(N2CCC(c3cc4cc(NC(=O)C5CC56CCOC6)ncc4cc3Cl)CC2)COCC1F` (single isomer, unassigned) [Ex-6.4, (R or S)-N-(7-chloro-6-(1-((3R,4R or 3S,4S)-4-fluoro-3-methyltetrahydrofuran-3-yl)piperidin-4-yl)isoquinolin-3-yl)-5-oxaspiro [2.4] heptane-1-carboxamide], the IC50 was 141 nM. For the compound `CC1(N2CCC(c3cc4cc(NC(=O)C5CC56CCOC6)ncc4cc3Cl)CC2)COCC1F` (single isomer, unassigned) [Ex-6.5, (R or S)-N-(7-chloro-6-(1-((3R,4R or 3S,4S)-4-fluoro-3-methyltetrahydrofuran-3-yl)piperidin-4-yl)isoquinolin-3-yl)-5-oxaspiro [2.4] heptane-1-carboxamide], the IC50 was 0.537 nM.

Regarding `CC1(N2CCC(c3cc4cc(NC(=O)C5CC56CCOC6)ncc4cc3Cl)CC2)COCC1F` (single isomer, unassigned) [Ex-6.6, (R or S)-N-(7-chloro-6-(1-((3R,4R or 3S,4S)-4-fluoro-3-methyltetrahydrofuran-3-yl)piperidin-4-yl)isoquinolin-3-yl)-5-oxaspiro [2.4] heptane-1-carboxamide], the IC50 is 1.17 nM. In the case of `CC1(N2CCC(c3cc4cc(NC(=O)C5CC56CCOC6)ncc4cc3Cl)CC2)COCC1F` (single isomer, unassigned) [Ex-6.7, (R or S)-N-(7-chloro-6-(1-((3R,4R or 3S,4S)-4-fluoro-3-methyltetrahydrofuran-3-yl)piperidin-4-yl)isoquinolin-3-yl)-5-oxaspiro [2.4] heptane-1-carboxamide], the IC50 was 1.82 nM. The figure for `CC1(N2CCC(c3cc4cc(NC(=O)C5CC56CCOC6)ncc4cc3Cl)CC2)COCC1F` (single isomer, unassigned) [Ex-6.8, (R or S)-N-(7-chloro-6-(1-((3R,4R or 3S,4S)-4-fluoro-3-methyltetrahydrofuran-3-yl)piperidin-4-yl)isoquinolin-3-yl)-5-oxaspiro [2.4] heptane-1-carboxamide] is 34.7 nM. Consider `CC1COCC1(C)N1CCC(c2cc3cc(NC(=O)C4CC45CCOCC5)ncc3cc2Cl)CC1` (single isomer, unassigned) [Ex-6.9, N-(7-chloro-6-(1-(3,4-dimethyltetrahydrofuran-3-yl)piperidin-4-yl)isoquinolin-3-yl)-6-oxaspiro[2.5]octane-1-carboxamide], for which the IC50 is 0.813 nM.

For `CC1COCC1(C)N1CCC(c2cc3cc(NC(=O)C4CC45CCOCC5)ncc3cc2Cl)CC1` (single isomer, unassigned) [Ex-6.10, N-(7-chloro-6-(1-(3,4-dimethyltetrahydrofuran-3-yl)piperidin-4-yl)isoquinolin-3-yl)-6-oxaspiro[2.5]octane-1-carboxamide], the IC50 was 110 nM. Turning to `CC1(N2CCC(c3cc4cc(NC(=O)C5C6COCC65)ncc4cc3Cl)CC2)CCOC1` (single isomer, unassigned) [Ex-6.11, N-(7-chloro-6-(1-(3-methyltetrahydrofuran-3-yl)piperidin-4-yl)isoquinolin-3-yl)-3-oxabicyclo[3.1.0]hexane-6-carboxamide], the IC50 was 1.95 nM.

Take `CC1(N2CCC(c3cc4cc(NC(=O)C5C6COCC65)ncc4cc3Cl)CC2)CCOC1` (single isomer, unassigned) [Ex-6.12, N-(7-chloro-6-(1-(3-methyltetrahydrofuran-3-yl)piperidin-4-yl)isoquinolin-3-yl)-3-oxabicyclo[3.1.0]hexane-6-carboxamide]: the IC50 is 8.13 nM. As for `CC(C)(O)C1CC1C(=O)Nc1cc2cc(C3CCN(C4(C)CCOC4)CC3)c(Cl)cc2cn1` (single isomer, unassigned) [Ex-6.13, N-(7-chloro-6-(1-(3-methyltetrahydrofuran-3-yl)piperidin-4-yl)isoquinolin-3-yl)-2-(2-hydroxypropan-2-yl)cyclopropane-1-carboxamide], the IC50 was 5.89 nM. With `CC(C)(O)C1CC1C(=O)Nc1cc2cc(C3CCN(C4(C)CCOC4)CC3)c(Cl)cc2cn1` (single isomer, unassigned) [Ex-6.14, N-(7-chloro-6-(1-(3-methyltetrahydrofuran-3-yl)piperidin-4-yl)isoquinolin-3-yl)-2-(2-hydroxypropan-2-yl)cyclopropane-1-carboxamide], the IC50 was 2.69 nM. As for `CC(C)(O)C1CC1C(=O)Nc1cc2cc(C3CCN(C4(C)CCOC4)CC3)c(Cl)cc2cn1` (single isomer, unassigned) [Ex-6.15, N-(7-chloro-6-(1-(3-methyltetrahydrofuran-3-yl)piperidin-4-yl)isoquinolin-3-yl)-2-(2-hydroxypropan-2-yl)cyclopropane-1-carboxamide], the IC50 is 0.115 nM. As to `CC1(N2CCC(c3cc4cc(NC(=O)C5CC56CCOCC6)ncc4cc3Cl)CC2)COC(C2CC2)C1` (single isomer, unassigned) [Ex-6.16, N-(7-chloro-6-(1-(5-cyclopropyl-3-methyltetrahydrofuran-3-yl)piperidin-4-yl)isoquinolin-3-yl)-6-oxaspiro[2.5]octane-1-carboxamide], the IC50 is 0.214 nM. On to `CC1(N2CCC(c3cc4cc(NC(=O)C5CC56CCOCC6)ncc4cc3Cl)CC2)COC(C2CC2)C1` (single isomer, unassigned) [Ex-6.17, N-(7-chloro-6-(1-(5-cyclopropyl-3-methyltetrahydrofuran-3-yl)piperidin-4-yl)isoquinolin-3-yl)-6-oxaspiro[2.5]octane-1-carboxamide], for which the IC50 was 3.55 nM. For the compound `CC1(C)COCC1(C)N1CCC(c2cc3cc(NC(=O)C4CC45CCOCC5)ncc3cc2Cl)CC1` (single isomer, unassigned) [Ex-6.18, N-(7-chloro-6-(1-(3,4,4-trimethyltetrahydrofuran-3-yl)piperidin-4-yl)isoquinolin-3-yl)-6-oxaspiro[2.5]octane-1-carboxamide], the IC50 was 0.708 nM. For `CC1(C)COCC1(C)N1CCC(c2cc3cc(NC(=O)C4CC45CCOCC5)ncc3cc2Cl)CC1` (single isomer, unassigned) [Ex-6.19, N-(7-chloro-6-(1-(3,4,4-trimethyltetrahydrofuran-3-yl)piperidin-4-yl)isoquinolin-3-yl)-6-oxaspiro[2.5]octane-1-carboxamide], the IC50 was 39.8 nM.

For `COC1COCC1(C)N1CCC(c2cc3cc(NC(=O)C4CC45CCOCC5)ncc3cc2Cl)CC1` (single isomer, unassigned) [Ex-6.22, N-(7-chloro-6-(1-(4-methoxy-3-methyltetrahydrofuran-3-yl)piperidin-4-yl)isoquinolin-3-yl)-6-oxaspiro[2.5]octane-1-carboxamide], the IC50 is 0.0813 nM. Turning to `COC1COCC1(C)N1CCC(c2cc3cc(NC(=O)C4CC45CCOCC5)ncc3cc2Cl)CC1` (single isomer, unassigned) [Ex-6.23, N-(7-chloro-6-(1-(4-methoxy-3-methyltetrahydrofuran-3-yl)piperidin-4-yl)isoquinolin-3-yl)-6-oxaspiro[2.5]octane-1-carboxamide], the IC50 was 1.82 nM. In the case of `CC1(N2CCC(c3cc4cc(NC(=O)C5CC56CCOCC6)ncc4cc3Cl)CC2)COCC1F` (single isomer, unassigned) [Ex-6.24, N-(7-chloro-6-(1-(4-fluoro-3-methyltetrahydrofuran-3-yl)piperidin-4-yl)isoquinolin-3-yl)-6-oxaspiro[2.5]octane-1-carboxamide], the IC50 is 0.0813 nM. Turning to `CC1(N2CCC(c3cc4cc(NC(=O)C5CC56CCOCC6)ncc4cc3Cl)CC2)COCC1F` (single isomer, unassigned) [Ex-6.25, N-(7-chloro-6-(1-(4-fluoro-3-methyltetrahydrofuran-3-yl)piperidin-4-yl)isoquinolin-3-yl)-6-oxaspiro[2.5]octane-1-carboxamide], the IC50 was 1.66 nM.

Values taken from patent US20240398784A1, “C-LINKED ISOQUINOLINE AMIDES AS LRRK2 INHIBITORS, PHARMACEUTICAL COMPOSITIONS, AND USES THEREOF” (Merck Sharp & Dohme LLC, priority 2021, published 2024).
